Measurements published in patent US10577340B1, “Beraprost-314d crystals and methods for preparation thereof” (CHIROGATE INTERNATIONAL INC., priority 2018, dated 2020).
Entries after “also recorded” stand apart in the source; their conditions may differ.

Key:
[1] = Storage stability of the crystalline form (crystalline form change, degradation products); assay type: physicochemical; conditions: six months
Protocol: (§1) X-ray Powder Diffraction (XRPD) Analysis: The XRPD patterns were collected on a Bruker D2 PHASER diffractometer with fixed divergence slits and ID LYNXEYE detector. The samples (ca. 100 mg) were flatly placed on a sample holder. The prepared samples were analyzed over a […] from 5° to 50° with step size of 0.02 degrees and step time of 1 second using CuKα radiation at a power of 10 mA and 30 kV. The CuKβ radiation was removed by a divergent beam nickel filter.

[2] = Crystalline form transformation from Form III to Form II at room temperature; assay type: physicochemical; conditions: FIG. 5
Protocol: as §1
The Beraprost-314d crystal Form III (0.5 g, from Example 5) was placed in a glass vial, and isothermal at room temperature for 1 day.

Substance	stability during storage (other crystalline forms, degraded products) ([1]; normal storage temperatures (about −20° C.))	stability during storage (other crystalline forms) ([1]; room temperature (about 20 to 25° C.))	crystalline form transformation ([2]; glass vial, isothermal at room temperature for 1 day)	time until conversion to Beraprost-314d crystal Form II ([2]; keeping at room temperature)
Beraprost-314d [Beraprost-314d crystal Form II]	no other crystalline forms or degraded products of impurities; also recorded: good stability with no other crystalline forms	good stability with no other crystalline forms	–	–
Beraprost-314d [Beraprost-314d crystal Form III]	–	–	completely converted to Beraprost-314d crystal Form II	≤ 1 days
